Measured values from PubChem BioAssay AID1949 (Southern Research Institute, 2009).
Values after ≈ are worked out from the molar mass of the structure shown. Inconclusive results are not listed. Active and inactive are the calls of the source. The rule behind the calls is not given here.

System: M. tuberculosis H37Rv growth inhibition
Assay: Mycobacterium tuberculosis H37Rv growth inhibition, cell based, confirmatory dose response (AID 1949);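 note: bacteria grown 7 days with compound before Alamar blue readout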

SMILES	IC50
O=[N+]([O-])c1ccccc1S(=O)(=O)Nc1ccc(S(=O)(=O)Nc2nccs2)cc1	3.8 µg/mL (≈ 8.63 µM)
Cc1cccc(C(=O)NC(=S)Nc2ccc([N+](=O)[O-])cc2O)c1	0.19 µg/mL (≈ 0.573 µM)
COc1ccc(OCCC(=O)Nc2nc(C3CCCCC3)cs2)cc1	25.5 µg/mL (≈ 70.8 µM)
COc1cc(/C=C/c2ccc3cccc(O)c3n2)cc([N+](=O)[O-])c1O	0.41 µg/mL (≈ 1.21 µM)
Cc1ccc(-c2[nH]c(-c3ccc([N+](=O)[O-])cc3)nc2-c2ccccc2)cc1	7.13 µg/mL (≈ 20.1 µM)
Cn1c(NC(=O)c2ccccc2)nc2ccccc21	0.57 µg/mL (≈ 2.27 µM)
Cc1ccc(C(=O)N2CCN(c3ccc(NC(=O)COc4c(C)cc(C)cc4Br)cc3)CC2)cc1	1.34 µg/mL (≈ 2.5 µM)
CCOC(=O)COc1ccc2ccccc2c1/C=C(\C)[N+](=O)[O-]	0.5 µg/mL (≈ 1.59 µM)
COC(=O)c1ccc(NC(=O)COc2ccc(-c3ccc(C#N)cc3)cc2)cc1	0.41 µg/mL (≈ 1.06 µM)
Cc1ccc2c(c1)c(-c1ccccc1)c(-c1ccccc1)n2CC(O)CN1CCN(CCO)CC1 (stereo unspecified)	1.84 µg/mL (≈ 3.92 µM)
O=C(Nc1ccc(-c2nc3ccccc3c(=O)o2)cc1)C(c1ccccc1)c1ccccc1	> 50 µg/mL (inactive)
CC(=O)Cc1nc(-c2ccccc2)no1	> 50 µg/mL (inactive)
Cc1ccc(C(=O)NCCC2=CCCCC2)cc1Br	3.14 µg/mL (≈ 9.74 µM)
CCC(C)Oc1ccc(C(=O)NC(=S)Nc2ccc3c(c2)COC3=O)cc1 (stereo unspecified)	0.55 µg/mL (≈ 1.43 µM)
CC(=O)c1c(O)n(C)c(=S)n(C)c1=O	> 50 µg/mL (inactive)
COc1ccc(-n2nc3ccc(NC(=O)c4ncn[nH]4)cc3n2)cc1Cl	> 50 µg/mL (inactive)
O=C(CC(O)(C(F)(F)F)C(F)(F)F)Nc1ccc(Cl)cc1Cl	5.7 µg/mL (≈ 15.4 µM)
Cc1ccc(C(C)C)c(OCCNCc2ccccc2)c1	> 50 µg/mL (inactive)
CCCCOC(=O)COc1ccc2c(=O)c(Oc3ccc(OCC)cc3)c(C)oc2c1	1.59 µg/mL (≈ 3.73 µM)
CC(Sc1nnc(N)s1)C(=O)Nc1nc2c(s1)CCCC2 (stereo unspecified)	0.75 µg/mL (≈ 2.2 µM)
N#Cc1cc(-c2nc3ccccc3[nH]2)c(N)n2c1nc1ccccc12	11.5 µg/mL (≈ 35.5 µM)
Cc1cnc(Nc2cccc(Cl)c2)s1	14.3 µg/mL (≈ 63.7 µM)
S=C(NCCCN1CCN(c2ccc(Cl)cc2)CC1)Nc1cccc(Cl)c1	3 µg/mL (≈ 7.09 µM)
O=C(COc1ccc(Br)cc1)Nc1ccccc1F	29.5 µg/mL (≈ 91.1 µM)

SMILES	IC50
CCN(CC)c1cccc(Oc2nc([N+](=O)[O-])nn2C)c1	1.81 µg/mL (≈ 6.21 µM)
Cc1cccc(Nc2nc(NCc3ccco3)c3ccccc3n2)c1	1.86 µg/mL (≈ 5.63 µM)
COc1ccc(-c2nc(-c3ccc(O)cc3O)cs2)cc1OC	0.17 µg/mL (≈ 0.516 µM)
Cc1cc(-c2csc(Nc3ccc(S(N)(=O)=O)cc3)n2)ccc1F	2.34 µg/mL (≈ 6.44 µM)
O=C(Nc1ccccc1-c1ccccc1)C(Cl)(Cl)Cl	2.44 µg/mL (≈ 7.76 µM)
COc1cc(C(=O)Nc2nc3c(s2)CCCC3)c(Br)c(OC)c1OC	2.8 µg/mL (≈ 6.55 µM)
COC(=O)c1ccc(/C=C/C(=O)c2cccs2)cc1	29.1 µg/mL (≈ 107 µM)
O=C1C(=O)N(Cc2ccccc2Cl)c2ccc(Br)cc21	3.79 µg/mL (≈ 10.8 µM)
CCOc1ccc(C(=O)NC23CC4CC(CC(C4)C2)C3)cc1[N+](=O)[O-]	> 50 µg/mL (inactive)
CCCCNCCOCCOc1ccc(Cl)cc1C(C)(C)C	4.33 µg/mL (≈ 13.2 µM)
Cc1ccccc1/C=C/c1ccc2cccc(O)c2n1	< 0.1 µg/mL
O=C1N(Cc2ccccc2Cl)c2ccc(Cl)cc2C1(O)c1c[nH]c2ccccc12 (stereo unspecified)	3.04 µg/mL (≈ 7.18 µM)
CCOc1ccc(-c2[nH]ncc2-c2ccccc2)c(O)c1C	4.39 µg/mL (≈ 14.9 µM)
O=S(=O)(Nc1cc(Sc2cccc3cccnc23)c(O)c2ccccc12)c1ccccc1	0.18 µg/mL (≈ 0.393 µM)
CCOC(=O)CSc1n[nH]c(-c2ccc(Cl)cc2)n1	2.99 µg/mL (≈ 10 µM)
CCOc1ccc(Nc2nc(-c3sc(C)nc3C)cs2)cc1	3.38 µg/mL (≈ 10.2 µM)
Cc1ccccc1OCCOc1cccc(C=O)c1	6.79 µg/mL (≈ 26.5 µM)
Cc1ccc(C)c(-c2nn(-c3cc(N4CCN(C)CC4)ccc3[N+](=O)[O-])c(=O)c3ccccc23)c1	1.76 µg/mL (≈ 3.75 µM)
CC(=O)NC(=S)NNC(=O)c1ccc(-c2ccccc2)cc1	< 0.1 µg/mL
CCOC(=O)COc1ccc2c(=O)c(-c3ccc(F)cc3)coc2c1	21.3 µg/mL (≈ 62.3 µM)
COc1cc(NC(=O)c2ccc3c(c2)OCCO3)ccc1NC(=O)c1ccccc1Cl	0.66 µg/mL (≈ 1.5 µM)
S=C(NCc1ccc(Cl)cc1)NCc1ccc(-n2cccn2)cc1	5.4 µg/mL (≈ 15.1 µM)
Cc1[nH]n(-c2ccccc2)c(=S)c1C=Nc1ccccc1O	2.35 µg/mL (≈ 7.6 µM)
CCOC(=O)COc1ccc2c(c1)c(C(=O)OCC)c(C)n2CC	0.4 µg/mL (≈ 1.2 µM)

SMILES	IC50
O=c1c2ccccc2nc(/C=C/c2ccc([N+](=O)[O-])o2)n1-c1cccc(O)c1	0.65 µg/mL (≈ 1.73 µM)
COc1ccc(-c2cc(C(F)F)n3ncc(C(=O)N4CCN(c5ccccc5)CC4)c3n2)cc1	> 50 µg/mL (inactive)
O=C(COc1ccc([N+](=O)[O-])cc1)Nc1ccccc1F	18.7 µg/mL (≈ 64.6 µM)
CCOC(=O)c1cc(=O)c(-c2ccccc2)n[nH]1	3.8 µg/mL (≈ 15.6 µM)
COc1ccc(N2CCN(CC(O)COc3ccc(C)cc3C(C)(C)C)CC2)cc1 (stereo unspecified)	4.09 µg/mL (≈ 9.91 µM)
COc1cccc(N2CCN(Cc3nc(N)nc(Nc4ccc(C)c(C)c4)n3)CC2)c1	2.82 µg/mL (≈ 6.72 µM)
Cc1ccc2nc(-c3ccc(N/C(N)=N\c4nc(C)cc(C)n4)cc3)sc2c1	25.7 µg/mL (≈ 66.2 µM)
COc1ccccc1OC(=O)c1sc2ccccc2c1Cl	1.37 µg/mL (≈ 4.3 µM)
Cc1nc2cc(NCc3cccc([N+](=O)[O-])c3)ccc2n1Cc1ccccc1	5.75 µg/mL (≈ 15.4 µM)
CCc1cc2c(=O)oc(-c3ccc(F)cc3)nc2s1	> 50 µg/mL (inactive)
CCc1ccc(Nc2ncnc3ccc(Br)cc23)cc1	4.16 µg/mL (≈ 12.7 µM)
COc1ccc(N/C(N)=N/c2nc(-c3cccs3)cc(C(F)(F)F)n2)cc1	> 50 µg/mL (inactive)
Cc1ccc(C(=O)Nc2ccc(C(F)(F)F)cc2)s1	4.67 µg/mL (≈ 16.4 µM)
O=C(Nc1ccc(Cl)cc1C(F)(F)F)c1ccc([N+](=O)[O-])o1	2.42 µg/mL (≈ 7.23 µM)
CC(=O)Oc1ccc2nc(-c3ccc(C(C)(C)C)cc3)oc(=O)c2c1	> 50 µg/mL (inactive)
CCOc1cccc2cc(-c3nc4ccc(C)cc4[nH]3)c(=O)oc12	< 0.1 µg/mL
O=C(Nc1cc(Cl)ccc1O)c1cc(Cl)ccc1Cl	12.2 µg/mL (≈ 38.5 µM)
O=C(CSc1nnc(-c2ccccc2)o1)N1CCc2ccccc2C1	9.27 µg/mL (≈ 26.4 µM)
CCOc1cc(CNC23CC4CC(CC(C4)C2)C3)ccc1OCc1cccs1	0.82 µg/mL (≈ 2.06 µM)
COC(=O)C(C)Oc1ccc2c(=O)c(Oc3ccc(OC)cc3)coc2c1 (stereo unspecified)	5.99 µg/mL (≈ 16.2 µM)
CCN(CC)C(=S)NC(=O)c1ccc(F)cc1	3.03 µg/mL (≈ 11.9 µM)
CC(=O)Nc1nc2ccccc2n1CCOc1ccccc1	2.94 µg/mL (≈ 9.95 µM)
Cc1cccc(N2CCN(C(=O)c3ccc(-c4ccccc4)cc3)CC2)c1C	2.34 µg/mL (≈ 6.32 µM)
COc1ccc(C(=O)C(CN2CCCCC2)c2ccccc2)cc1 (stereo unspecified)	3.15 µg/mL (≈ 9.74 µM)

SMILES	IC50
O=C(Nc1ccccc1OC(F)F)c1ccc([N+](=O)[O-])o1	6.29 µg/mL (≈ 21.1 µM)
CC1CC(C)CN(C(=O)Nc2ccc(Cl)c(Cl)c2)C1 (stereo unspecified)	1.21 µg/mL (≈ 4.02 µM)
Cc1ccc(SCC(=O)Nc2cccc(F)c2)cc1	5.34 µg/mL (≈ 19.4 µM)
c1cc2[nH]onc2c2c3c(nc12)CCCC3	8.28 µg/mL (≈ 38.8 µM)
O=C(Oc1cccc2cccnc12)c1ccc(Cl)c(S(=O)(=O)N2CCOCC2)c1	1.48 µg/mL (≈ 3.42 µM)
CCN(CC)c1ccc(NC(=O)c2ccc([N+](=O)[O-])o2)c(C)c1	0.52 µg/mL (≈ 1.64 µM)
CCCCc1cc(=O)oc2cc(OC(C)C(=O)OCC)c(Cl)cc12 (stereo unspecified)	< 0.1 µg/mL
Cc1ccc2cccc(OCCOc3ccccc3C(C)C)c2n1	4.02 µg/mL (≈ 12.5 µM)
Cc1ccc(Oc2nc(-c3cccnc3)nc3ccccc23)cc1C	15.8 µg/mL (≈ 48.4 µM)
COc1ccccc1NC(=O)CSc1nc(-c2ccccc2)cc(C(F)(F)F)c1C#N	1.63 µg/mL (≈ 3.68 µM)
Cc1ccc(CN2C(=O)C(=O)c3cc(Br)ccc32)c(C)c1	8.44 µg/mL (≈ 24.5 µM)
Cc1cc(C)cc(C(=O)NC(=S)Nc2cc([N+](=O)[O-])ccc2O)c1	0.4 µg/mL (≈ 1.16 µM)
CCc1c(C)sc(NC(=S)N2CCN(CC)CC2)c1C(=O)OC	16.3 µg/mL (≈ 45.8 µM)
Cc1cc(Br)c2[nH]c(O)c(N=NC(=O)COc3ccc4ccccc4c3)c2c1	12 µg/mL (≈ 27.5 µM)
O=C(Nc1ccccc1N1CCCC1)c1ccc(-c2cccc(Cl)c2)o1	6.01 µg/mL (≈ 16.4 µM)
O=C(NCCCN1CCN(c2ccc(F)cc2)CC1)NC12CC3CC(CC(C3)C1)C2	> 50 µg/mL (inactive)
Cc1ccc(OCC(=O)c2ccc(Br)cc2)cc1C	47.7 µg/mL (≈ 149 µM)
Cc1ccccc1NC(=O)c1cc(Cl)ccc1O	2.6 µg/mL (≈ 9.93 µM)
N#Cc1c(SCCN2CCCC2)nc2c(c1C(F)(F)F)CC(c1ccccc1)CC2 (stereo unspecified)	47.4 µg/mL (≈ 110 µM)
COC(=O)COc1ccc2c(=O)c(Oc3cnn(-c4ccccc4)c3)c(C)oc2c1	3.89 µg/mL (≈ 9.57 µM)
O=C(CCN1CCC(c2ccccc2)C1)c1ccco1 (stereo unspecified)	> 50 µg/mL (inactive)
CC12CCC(C(=O)Nc3ccc(OC(F)(F)F)cc3)(CC1=O)C2(C)C (stereo unspecified)	3.09 µg/mL (≈ 8.7 µM)
CC(C)CN1C(=O)c2cccc3c([N+](=O)[O-])ccc(c23)C1=O	> 50 µg/mL (inactive)
Cc1ccc(Cl)cc1N1CCN(CC(O)COc2ccc3ccccc3c2)CC1 (stereo unspecified)	4.13 µg/mL (≈ 10.1 µM)

SMILES	IC50
C=CCc1cc(/C=C/[N+](=O)[O-])cc(OCC)c1O	5.69 µg/mL (≈ 22.8 µM)
COC(=O)c1sc2nc(-c3ccccc3)nc(N3CCN(C)CC3)c2c1C	> 50 µg/mL (inactive)
CC(=O)Oc1cc(C)cc2oc(=O)c3c(c12)CCCC3	3.85 µg/mL (≈ 14.1 µM)
CCOC(=O)c1c(C)n(Cc2ccccc2)c2ccc(OCC(O)CNC(C)(C)C)cc12 (stereo unspecified)	4.28 µg/mL (≈ 9.76 µM)
COC(=O)c1sccc1NC(=O)c1c(F)c(F)c(F)c(F)c1F	0.21 µg/mL (≈ 0.598 µM)
CC(C)(C)c1ccc(OCC(=O)Nc2ccc3c(c2)OCCO3)c(Br)c1	4.25 µg/mL (≈ 10.1 µM)
Cc1c(NC(=O)Nc2cccc(C(F)(F)F)c2)cccc1[N+](=O)[O-]	2.93 µg/mL (≈ 8.64 µM)
O=S(Cc1ccccc1)c1nc2ccccc2s1 (stereo unspecified)	3.15 µg/mL (≈ 11.5 µM)
Clc1ccc(CN2CCN(c3ncnc4scc(-c5cccs5)c34)CC2)cc1	20.5 µg/mL (≈ 48.1 µM)
CN(CCOCCOc1ccc(I)cc1)Cc1ccccc1	6.75 µg/mL (≈ 16.4 µM)
CCN1C(=O)c2cccc3c([N+](=O)[O-])ccc(c23)C1=O	> 50 µg/mL (inactive)
CCOCC(=O)Nc1sc2c(c1C(=O)OCC)CCCC2	> 50 µg/mL (inactive)
CC(=O)c1ccc(NC(=S)Nc2ccc(Br)c(Cl)c2)cc1	2.14 µg/mL (≈ 5.58 µM)
CCOC(=O)C1=C(c2ccc(C)cc2)C(=O)c2ccccc2C1=O	3.03 µg/mL (≈ 9.46 µM)
O=C(NCCC1=CCCCC1)C12CC3CC(CC(C3)C1)C2	11.2 µg/mL (≈ 39 µM)
Cc1cc(Br)cc2c1N(CCCOc1ccccc1)C(=O)C2=O	9.2 µg/mL (≈ 24.6 µM)
Cc1cc(OCC(=O)NC2C3CC4CC(C3)CC2C4)cc(C)c1Br (stereo unspecified)	1.45 µg/mL (≈ 3.7 µM)
NC(N)=Nc1nc(-c2ccccc2)c2cc(F)ccc2n1	7.61 µg/mL (≈ 27.1 µM)
Cc1cc(Cl)ccc1OCC(O)CNC(C)c1ccccc1 (stereo unspecified)	8.02 µg/mL (≈ 25.1 µM)
CC1CCC(C(=O)c2c(O)c3ccccc3oc2=O)CC1 (stereo unspecified)	> 50 µg/mL (inactive)
